{"source": "patent US12472185B2", "about": "“Methods for killing antibiotic tolerant bacteria” (THE PENN STATE RESEARCH FOUNDATION, priority 2020, dated 2025)", "key": {"[1]": {"tested_on": "E. coli exponentially-growing cells", "assay": "Killing at one MIC in PBS, NPIMA compared with cisplatin", "assay_type": "cell-based, Escherichia coli", "conditions": "3 hr", "source_text": "FIG. 7. NPIMA compared width cisplatin for killing Pseudomonas aeruginosa, Escherichia coli, and Staphylococcus aureus. Survival of exponentially-growing cells of P. aeruginosa PA14 (a), E. coli (b), and S. aureus (c) treated with one MIC of NPIMA (♦) and cisplatin (●) for 3 hr in PBS. DMSO (▴) and NaClO4 (*) were used as a negative controls. MIC, minimum inhibitory concentration; NPIMA, 5-nitro-3-phenyl-1H-indol-2-yl-methylamine hydrochloride.\nFor bacterial viability, cells were washed twice with 0.85% NaCl, resuspended in 1×PBS, and cell counts were determined via the drop assay (Donegan, Matyac, Seidler, & Porteous, 1991). For human cell viability, pre-cultured human cancer HT-29 cells were dispensed in 98 μl in 96-well plates with approximately 5,000 cells/well. NPIMA was added (2 μl) to produce concentrations of 5, 10, 100, and 200 μM. For controls, Triton X-100 (positive control) and DMSO (negative solvent control), were used, and the medium was used for background. Plates were incubated in a humidified incubator (37° C., 5% CO2) for 24 hr. Cell viability was determined via a cell counting kit (CCK-8 Kit, ab228554; Abcam), and cytotoxicity was determined via the lactate dehydrogenase (LDH) assay (LDH Assay Kit, MK401; Takara)."}, "[2]": {"tested_on": "E. coli BW25113 persister cells", "assay": "Survival of persister cells (rifampicin/ampicillin generated)", "assay_type": "cell-based, Escherichia coli", "conditions": "100 μM", "protocol": "FIG. 3. NPIMA kills Escherichia coli, Pseudomonas aeruginosa, persister cells. Survival of (a) E. coli BW25113 and (b) P. aeruginosa PA14 after treatment with NPIMA (100 μM), 5-iodoindole (5-II, 100 μM), and DMSO for 6 hr. Asterisk indicates no viable cells detected. DMSO, dimethyl sulfoxide; NPIMA, 5-nitro-3-phenyl-1H-indol-2-yl-methylamine hydrochloride.\nE. coli persister cells were prepared following our previous method (Kim, Yamasaki, et al., 2018; Kwan, Valenta, Benedik, & Wood, 2013). Exponentially-growing cells (turbidity of 0.8 at 600 nm) were treated with rifampicin (100 μg/ml for 30 min) to stop transcription, washed, and any remaining nonpersister cells were lysed by ampicillin in LB (100 μg/ml for 3 hr). Cells were harvested by centrifugation (17,000 g for 1 min) and washed with 1× phosphate-buffered saline buffer (PBS, 8 g NaCl, 0.2 g KCl, 1.15 g Na2HPO4, and 0.2 g KH2PO4 per 1,000 ml) twice to remove all possible carbon sources, then resuspended with 1×PBS. Natural E. coli persister cells were generated by treating stationary-phase cells (turbidity of 6 at 600 nm) with ampicillin (100 μg/ml) for 3 hr. P. aeruginosa PA14 persister cells were prepared by incubating to the stationary phase, diluting sixfold, and treating with carbonyl cyanide m-chlorophenylhydrazone (CCCP, 50 mg/ml stock solution in dimethly sulfoxide [DMSO]) to stop adenosine triphosphate (ATP) production (200 μg/ml for 3 hr), washed twice with 0.85% NaCl (5,000 g for 10 min), and any nonpersister cells were killed by ciprofloxacin (5 μg/ml) in LB for 3 hr. Following the antibiotic treatment, bacteria were washed twice with 0.85% NaCl (5,000 g for 10 min).\nFor bacterial viability, cells were washed twice with 0.85% NaCl, resuspended in 1×PBS, and cell counts were determined via the drop assay (Donegan, Matyac, Seidler, & Porteous, 1991). […] Cell viability was determined via a cell counting kit (CCK-8 Kit, ab228554; Abcam), and cytotoxicity was determined via the lactate dehydrogenase (LDH) assay (LDH Assay Kit, MK401; Takara)."}, "[3]": {"tested_on": "S. aureus", "assay": "Lysis assays (total protein and DNA in supernatants)", "assay_type": "cell-based, Staphylococcus aureus", "conditions": "100 μM, 6 hr", "protocol": "FIG. 5. NPIMA lyses Escherichia coli, Pseudomonas aeruginosa, and Staphylococcus aureus. Total protein (a) and DNA (b) found in supernatants as evidence of cell lysis after treatment of cells at a turbidity of 0.8 at 600 nm with 100 μM NPIMA after 1 hr for E. coli and P. aeruginosa and 6 hr for S. aureus. NPIMA, 5-nitro-3-phenyl-1H-indol-2-yl-methylamine hydrochloride.\nExponentially-growing E. coli BW25113 cells (turbidity 0.8 at 600 nm) were washed twice with 0.85% NaCl, resuspended in 1 ml of 1×PBS, and NPIMA (100 μM) was added for 1 hr for E. coli and P. aeruginosa and 6 hr for S. aureus with shaking at 250 rpm (0.1% DMSO was used as the negative control). Cell supernatants were collected after centrifuging at 6,500 g (4° C. for 15 min), and total protein was measured by the Bicinchoninic Acid (BCA) protein assay Kit (Prod #23227; Pierce). DNA in the supernatant (199 μl) was detected by adding 1 μl of Picogreen (P7589; Invitrogen) and incubating for 5 min at room temperature in the dark room. The fluorescence signal was read by a Tecan microplate reader (Infinite M200PRO) with 480 nm excitation and 520 nm emission by utilizing a calibration curved made with plasmid pEX18Ap at 0, 0.004, 0.008, 0.016, 0.063, 0.125, 0.25, and 0.5 ng/μl."}, "[4]": {"tested_on": "P. aeruginosa + S. aureus", "assay": "In vitro Lubbock chronic wound pathogenic biofilm model", "assay_type": "cell-based, Pseudomonas aeruginosa and Staphylococcus aureus", "conditions": "0.5 mM, 6 hr", "protocol": "FIG. 10. NPIMA kills S. aureus and P. aeruginosa in a wound model. Survival of total cells (P. aeruginosa+S. aureus) in the wound model after treatment with NPIMA for 6 h. The left bar is the solvent (DMSO) negative control.\nOvernight cultures of S. aureus and P. aeruginosa PA14 were diluted in wound-like media (45% Bolton broth, 50% bovine plasma, and 5% laked horse blood; Sun, Dowd, Smith, Rhoads, & Wolcott, 2008) to a turbidity of 0.5 at 600 nm in 1 ml. Each culture (1%) was used to inoculate fresh 5 ml of wound-like media. The combined culture (200 μl/well) was placed into 96-well plates and incubated at 37° C. with shaking for 24 hr. The non-gel liquid was removed, then the gel was washed once with PBS. NPIMA (0.1 and 0.5 mM) and DMSO were then added (200 μl/well) to the plates, which were incubated for another 6 hr with shaking. By triturating, the gel with cells was removed and added to 0.8 ml of PBS, and the cell viability was measured by spreading 100 μl of diluted culture on LB plates."}, "[5]": {"tested_on": "E coli", "assay": "Resistance test by daily propagation at 0.25 MIC", "assay_type": "cell-based, Escherichia coli", "conditions": "7 days at 0.25 MIC (25 μM), then 1 MIC (100 μM) overnight", "protocol": "After 7 days, the sequentially-propagated E. coli cells were contacted with LB with 1 MIC of NPIMA (100 μM) and incubated overnight to allow any putative resistant cells to grow and increase the turbidity."}}}
{"smiles": "Cl.NCc1[nH]c2ccc([N+](=O)[O-])cc2c1-c1ccccc1", "note": "[NPIMA, [(5-nitro-3-phenyl-1H-indol-2-yl)methyl]amine hydrochloride]", "values": [{"measurement": "effectiveness relative to cisplatin", "setting": "[1]", "result": "more effective than cisplatin"}, {"measurement": "time to eradicate E. coli persisters", "setting": "[2]", "result": 6, "unit": "h"}, {"measurement": "killing of E. coli persister cells", "setting": "[2]; 6 hr", "result": "eradicated"}, {"measurement": "DNA released compared with DMSO alone", "setting": "[3]", "result": "1.82±0.05", "unit": "fold"}, {"measurement": "total protein released compared with DMSO alone", "setting": "[3]", "result": "2.9±0.1", "unit": "fold"}, {"measurement": "reduction of total viable number of cells compared to DMSO", "setting": "[4]", "result": 10, "unit": "fold"}, {"measurement": "resistance after propagation", "setting": "[5]", "result": "all of the E. coli cells were killed"}]}
